In patent publication US11440886B2, “Anti-inflammatory compound, and preparation and use thereof” (E-Nitiate Biopharmaceuticals (Hangzhou) Co., Ltd., priority 2018, dated 2022):

Molecular target: human recombinant PDE4B1 enzyme (Homo sapiens (Human), UniProt Q07343)
Experiment: Inhibition of PDE4B1 activity by cAMP HTRF assay
Type: biochemical
Conditions: human recombinant PDE4B1, cAMP 40 nM, pH 7.4
Protocol: Determination of the inhibition of the compounds on PDE4B1 activity by using cAMP HTRF® assay
The inhibitory effect of the compounds on human PDE4B1 enzyme activity was determined by quantifying the 5′-adenosine monophosphate (5′-AMP) formed from 3′,5′-cyclic adenosine monophosphate (cAMP).
The test compound or water (control) and human recombinant PDE4B1 enzyme (4.8 U) were mixed in a buffer solution (pH 7.4) consisting of 1× Hanks' balanced salt solution (HBSS), 5 mM HEPES, 3 mM MgCl2, and 0.1% BSA and incubated for 10 min. A cAMP enzyme substrate (final concentration 40 nM) was added, and the mixture was incubated at room temperature for 60 min. Then a fluorescent acceptor (Dye2 labeled with cAMP), a fluorescent donor (anti-cAMP antibody labeled with europium cryptate) and a non-specific phosphodiesterase inhibitor IBMX (3-isobutyl-1-methyl xanthine; final concentration 1 mM) were added. After 60 min, the fluorescence transfer related to the amount of remaining cAMP was measured on a microplate reader (Rubystar, BMG) at λex=337 nm, λem=620 nm and λem=665 nm. The enzyme activity is calculated from the ratio of the signals measured at 665 nm and 620 nm. The results are expressed as percent inhibition of the enzyme activity of the control (without PDE4 inhibitor). The enzyme was omitted for measurement of the basic control. The IC50 value (IC50=the concentration that caused the half-maximum inhibition of the specific activity of the control) is derived from dose-response measurements with eight different concentrations (n=2; repeated 2 times)

Chain of human recombinant PDE4B1 enzyme (Q07343 whole entry): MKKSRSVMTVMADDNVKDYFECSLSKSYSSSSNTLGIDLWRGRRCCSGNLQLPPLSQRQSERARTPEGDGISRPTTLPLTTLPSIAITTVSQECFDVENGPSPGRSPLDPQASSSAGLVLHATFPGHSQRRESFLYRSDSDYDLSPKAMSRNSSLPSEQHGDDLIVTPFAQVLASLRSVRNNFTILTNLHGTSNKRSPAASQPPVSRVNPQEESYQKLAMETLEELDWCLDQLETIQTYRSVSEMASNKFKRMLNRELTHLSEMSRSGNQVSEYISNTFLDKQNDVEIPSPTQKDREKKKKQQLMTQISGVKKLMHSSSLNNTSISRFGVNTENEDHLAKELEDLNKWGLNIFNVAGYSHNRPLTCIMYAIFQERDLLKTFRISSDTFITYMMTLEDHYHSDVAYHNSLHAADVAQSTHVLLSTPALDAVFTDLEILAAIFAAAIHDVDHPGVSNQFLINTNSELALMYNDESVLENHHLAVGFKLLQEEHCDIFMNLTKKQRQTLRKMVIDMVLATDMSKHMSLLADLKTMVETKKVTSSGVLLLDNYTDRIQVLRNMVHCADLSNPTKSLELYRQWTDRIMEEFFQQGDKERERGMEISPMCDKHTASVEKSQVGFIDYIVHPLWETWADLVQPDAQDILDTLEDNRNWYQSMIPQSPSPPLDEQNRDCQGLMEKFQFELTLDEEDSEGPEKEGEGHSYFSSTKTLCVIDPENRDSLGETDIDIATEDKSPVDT

IC50	Compound
105 nM	COc1ccc(/C=C/n2c(C)cc(=O)cc2C)cc1OCS(C)(=O)=O [Example 76, (E)-1-(3-methylsulfonemethoxy-4-methoxystyryl)-2,6-dimethylpyridin-4(1H)-one]
36 nM	COc1ccc(/C=C/n2c(C)cc(=O)cc2C)cc1OCC[S+](C)[O-] (stereo not shown) [Example 78, (E)-1-(3-methylsulfoxideethoxy-4-methoxystyryl)-2,6-dimethylpyridin-4(1H)-one]
160 nM	COc1ccc(/C=C/n2c(C)cc(=O)cc2C)cc1OCCS(C)(=O)=O [Example 79, (E)-1-(3-methylsulfoneethoxy-4-methoxystyryl)-2,6-dimethylpyridin-4(1H)-one]
1.15 nM	COc1ccc(/C=C/n2c(C)cc(=O)cc2C)cc1OC1CCS(=O)(=O)C1 (stereo not shown) [Example 81, (E)-1-(3-((1,1,-dioxotetrahydrothiophen-3-yl)oxy)-4-methoxystyryl)-2,6-dimethylpyridin-4(1H)-one]
7.5 nM	COc1ccc(/C=C/n2c(C)cc(=O)cc2C)cc1O[C@H]1CCSC1 [Example 82, (S,E)-1-(3-(tetrahydrothiophen-3-yl)oxy-4-methoxystyryl)-2,6-dimethylpyridin-4(1H)-one]
230 nM	COc1ccc(/C=C/n2c(C)cc(=O)cc2C)cc1O[C@H]1CCS(=O)(=O)C1 [Example 84, (S,E)-1-(3-((1,1-dioxotetrahydrothiophen-3-yl)oxy)-4-methoxy-styryl)-2,6-dimethylpyridin-4(1H)-one]
3.8 nM	COc1ccc(/C=C/n2c(C)cc(=O)cc2C)cc1O[C@@H]1CCSC1 [Example 85, (R,E)-1-(3-(tetrahydrothiophen-3-yl)oxy-4-methoxystyryl)-2,6-dimethylpyridin-4(1H)-one]
78 nM	COc1ccc(/C=C/n2c(C)cc(=O)cc2C)cc1O[C@@H]1CCS(=O)(=O)C1 [Example 87, (R,E)-1-(3-((1,1-dioxotetrahydrothiophen-3-yl)oxy)-4-methoxy-styryl)-2,6-dimethylpyridin-4(1H)-one]
6.9 nM	COc1cc(/C=C/n2c(C)cc(=O)cc2C)ccc1OC(F)F [Example 89, (E)-1-(3-methoxy-4-difluoromethoxy-styryl)-2,6-dimethylpyridin-4(1H)-one]
3.8 nM	CSCOc1cc(/C=C/n2c(C)cc(=O)cc2C)ccc1OC(F)F [Example 90, (E)-1-(3-methylthiomethoxy-4-difluoromethoxy-styryl)-2,6-dimethylpyridin-4(1H)-one]
75 nM	Cc1cc(=O)cc(C)n1/C=C/c1ccc(OC(F)F)c(OC[S+](C)[O-])c1 (stereo not shown) [Example 91, (E)-1-(3-methylsulfoxidemethoxy-4-difluoromethoxystyryl)-2,6-dimethylpyridin-4(1H)-one]
94 nM	Cc1cc(=O)cc(C)n1/C=C/c1ccc(OC(F)F)c(OCS(C)(=O)=O)c1 [Example 92, (E)-1-(3-methylsulfonemethoxy-4-difluoromethoxy-styryl)-2,6-dimethylpyridin-4(1H)-one]
12.9 nM	CSCCOc1cc(/C=C/n2c(C)cc(=O)cc2C)ccc1OC(F)F [Example 93, (E)-1-(3-methylthioethoxy-4-difluoromethoxystyryl)-2,6-dimethylpyridin-4(1H)-one]
137 nM	Cc1cc(=O)cc(C)n1/C=C/c1ccc(OC(F)F)c(OCC[S+](C)[O-])c1 (stereo not shown) [Example 94, (E)-1-(3-methylsulfoxideethoxy-4-difluoromethoxystyryl)-2,6-dimethylpyridin-4(1H)-one]
260 nM	Cc1cc(=O)cc(C)n1/C=C/c1ccc(OC(F)F)c(OCCS(C)(=O)=O)c1 [Example 95, (E)-1-(3-methylsulfoneethoxy-4-difluoromethoxystyryl)-2,6-dimethylpyridin-4(1H)-one]
2.4 nM	Cc1cc(=O)cc(C)n1/C=C/c1ccc(OC(F)F)c(OC2CCSC2)c1 (stereo not shown) [Example 96, (E)-1-((3-(tetrahydrothiophen-3-yl)oxy-4-difluoromethoxy)-styryl)-2,6-dimethylpyridin-4(1H)-one]
3.7 nM	Cc1cc(=O)cc(C)n1/C=C/c1ccc(OC(F)F)c(O[C@H]2CCSC2)c1 [Example 97, (S,E)-1-(3-(tetrahydrothiophen-3-yl)oxy-4-difluoromethoxystyryl)-2,6-dimethylpyridin-4(1H)-one]
59 nM	Cc1cc(=O)cc(C)n1/C=C/c1ccc(OC(F)F)c(O[C@H]2CCS(=O)(=O)C2)c1 [Example 99, (S,E)-1-(3-(1,1-dioxotetrahydrothiophen-3-yl)oxy-4-difluoromethoxystyryl)-2,6-dimethylpyridin-4(1H)-one]
1.5 nM	Cc1cc(=O)cc(C)n1/C=C/c1ccc(OC(F)F)c(O[C@@H]2CCSC2)c1 [Example 100, (R,E)-1-(3-(tetrahydrothiophen-3-yl)oxy-4-difluoromethoxystyryl)-2,6-dimethylpyridin-4(1H)-one]
50 nM	Cc1cc(=O)cc(C)n1/C=C/c1ccc(OC(F)F)c(O[C@@H]2CCS(=O)(=O)C2)c1 [Example 102, (R,E)-1-(3-(1,1-dioxotetrahydrothiophen-3-yl)oxy-4-difluoromethoxystyryl)-2,6-dimethylpyridin-4(1H)-one]
14 nM	COc1ccc(/C(C)=C/n2c(C)cc(=O)cc2C)cc1OCC1CC1 [Example 103, (E)-1-(2-(3-cyclopropylmethoxy-4-methoxyphenyl)-2-methylethenyl)-2,6-dimethylpyridin-4(1H)-one]
1700 nM	COc1ccc(/C(=C/n2c(C)cc(=O)cc2C)c2ccccc2)cc1OCC1CC1 [Example 104-1, (E)-1-(2-(3-cyclopropylmethoxy-4-methoxyphenyl)-2-phenylethenyl)-2,6-dimethylpyridin-4(1H)-one]
8400 nM	COc1ccc(/C(=C\n2c(C)cc(=O)cc2C)c2ccccc2)cc1OCC1CC1 [Example 104-2, (Z)-1-(2-(3-cyclopropylmethoxy-4-methoxyphenyl)-2-phenylethenyl)-2,6-dimethylpyridin-4(1H)-one]
3 nM	CC#C/C(=C\n1c(C)cc(=O)cc1C)c1ccc(OC)c(OCC2CC2)c1 [Example 105, (Z)-1-(2-(3-cyclopropylmethoxy-4-methoxyphenyl)pent-1-en-3-yn-1-yl)-2,6-dimethylpyridin-4(1H)-one]
450 nM	COc1ccc(/C(=C/n2c(C)cc(=O)cc2C)C(N)=O)cc1OCC1CC1 [Example 107, (Z)-2-(3-cyclopropylmethoxy-4-methoxyphenyl)-3-(2,6-dimethyl-4-carbonylpyridin-1(4H)-yl)-acrylamide]
760 nM	CNC(=O)/C(=C\n1c(C)cc(=O)cc1C)c1ccc(OC)c(OCC2CC2)c1 [Example 108, (Z)-2-(3-cyclopropylmethoxy-4-methoxyphenyl)-3-(2,6-dimethyl-4-carbonylpyridin-1(4H)-yl)-N-methylacrylamide]
180 nM	COc1ccc(/C(=C/n2c(C)cc(=O)cc2C)C(=O)N(C)C)cc1OCC1CC1 [Example 109, (Z)-2-(3-cyclopropylmethoxy-4-methoxyphenyl)-3-(2,6-dimethyl-4-carbonylpyridin-1(4H)-yl)-N,N-dimethylacrylamide]
460 nM	CCN(CC)C(=O)/C(=C\n1c(C)cc(=O)cc1C)c1ccc(OC)c(OCC2CC2)c1 [Example 110, (Z)-2-(3-cyclopropylmethoxy-4-methoxyphenyl)-3-(2,6-dimethyl-4-carbonylpyridin-1(4H)-yl)-N,N-diethylacrylamide]
